# From US20140106967A1, “AUXIN PLANT GROWTH REGULATORS” (The Governors of The University of Alberta, priority 2011, published 2014)
# Tested on: pea plants cv. 'Carneval'
# Assay: Growth chamber experiment 2, pea 'Carneval' sprayed with 4-ME-IAA: peduncle/pedicel growth and seed yield, with or without heat stress (Tables P3-P12)
# Type: in vivo, Pisum sativum L.
# Method: For growth chamber experiment, seeds of ‘Carneval’ were planted at an approximate depth of 2.5 cm in 3-L plastic pots (4 seeds per pot and thinned to 2 plants per pot after approximately 2 weeks) in 1:1 Sunshine #4 potting mix (Sun Gro Horticulture, Vancouver, Canada) and sand. The experiment was arranged in a completely randomized design and grown at the University of Alberta in a growth chamber set at 19° C./17° C. (day/night) with a 16/8-h photoperiod under cool-white fluorescent lights (54W/835/HO high fluorescent bulbs, Phillips, Holland; 350 μE m^2 s^−2). For the heat stress treatment, plants were placed in a separate growth chamber with a 16/8-h photoperiod under cool-white fluorescent lights (F54/15/835/HO high fluorescent bulbs, Phillips, Holland) for 4 days where the temperature was cycled over a 24 hr period as follows: 33° C. air temperature for 6 hours per day (between 11:00 and 17:00 hrs) for 4 days during the light cycle; the remainder of the light cycle was maintained at a 22° C. air temperature; the dark cycle was maintained at 19° C. After the 4 day heat treatment, the plants were returned to the same growth chamber they were originally grown in, where they were taken to maturity.
# For experiment 2, aqueous 4-methyl-indole-3-acetic acid (4-ME-IAA) solutions at 1×10^−7, 1×10^−6, 1×10^−5, or 1×10^−4 M in 0.1% (v/v) Tween 80 or aqueous 0.1% (v/v) Tween 80 (control) were applied as a spray to the entire plant to cover when the first flowering node of the main stem was near or at anthesis. In addition to the application at the timing cited above, one application of 4-ME-IAA at 1×10^−6 M or 1×10^−5 M was made when the floral buds were tightly clustered inside the stipule leaves at the stem apex (floral buds not visible outside of stipule leaves; designated the ‘Early’ treatment). In the heat stress treatment, the hormone or control treatment application was completed 16 hrs prior to the initiation of the first heat-stress cycle. The length and diameter (measured mid-length) of the lower and upper peduncles and pedicels of the inflorescence with two pods (or the lower peduncle and pedicel if a single pod node) at the first, second, third and fourth flowering nodes of the main stem of pea plants were determined for hormone-treated and control plants. Standard error of the mean (SE) was calculated for the means of all data for a measure of statistical significance in comparing treatment means.
# [1] = 1×10^−6 M, first flowering node, heat stress (33° C. 6 h/day, 4 days)
# [2] = 1×10^−6 M, first flowering node, no heat stress
# [3] = 1×10^−6 M, fourth flowering node, heat stress (33° C. 6 h/day, 4 days)
# [4] = 1×10^−6 M, fourth flowering node, no heat stress
# [5] = 1×10^−6 M, heat stress (33° C. 6 h/day, 4 days)
# [6] = 1×10^−6 M, second flowering node, heat stress (33° C. 6 h/day, 4 days)
# [7] = 1×10^−6 M, second flowering node, no heat stress
# [8] = 1×10^−6 M, third flowering node, heat stress (33° C. 6 h/day, 4 days)
# [9] = 1×10^−6 M, third flowering node, no heat stress
# [10] = 1×10^−7 M, applied near or at anthesis, no heat stress
# [11] = 1×10^−7 M, first flowering node, heat stress (33° C. 6 h/day, 4 days)
# [12] = 1×10^−7 M, first flowering node, no heat stress
# [13] = 1×10^−7 M, fourth flowering node, heat stress (33° C. 6 h/day, 4 days)
# [14] = 1×10^−7 M, fourth flowering node, no heat stress
# [15] = 1×10^−7 M, heat stress (33° C. 6 h/day, 4 days)
# [16] = 1×10^−7 M, second flowering node, heat stress (33° C. 6 h/day, 4 days)
# [17] = 1×10^−7 M, second flowering node, no heat stress
# [18] = 1×10^−7 M, third flowering node, heat stress (33° C. 6 h/day, 4 days)
# [19] = 1×10^−7 M, third flowering node, no heat stress
# [20] = Early treatment (tight floral bud stage) 1×10^−5 M, no heat stress
# [21] = Early treatment (tight floral bud stage) 1×10^−6 M, no heat stress
structure (smiles),measurement,setting,value
"Cc1cccc2[nH]cc(CC(=O)O)c12 [4-ME-IAA, 4-methyl-indole-3-acetic acid]",Lower Peduncle diameter,[1],1.38 ± 0.08 mm
same,Upper Pedicel Length,[1],8.29 ± 0.18 mm
same,Upper Pedicel diameter,[1],1.43 ± 0.06 mm
same,Upper Peduncle Length,[1],16.71 ± 1.55 mm
same,Upper Peduncle diameter,[1],1.19 ± 0.07 mm
same,Lower Pedicel Length,[2],9.40 ± 0.27 mm
same,Lower Pedicel diameter,[2],1.70 ± 0.04 mm
same,Lower Peduncle Length,[2],75.00 ± 4.00 mm
same,Lower Peduncle diameter,[2],1.65 ± 0.03 mm
same,Upper Pedicel Length,[2],9.40 ± 0.27 mm
same,Upper Pedicel diameter,[2],1.54 ± 0.04 mm
same,Upper Peduncle Length,[2],20.30 ± 1.54 mm
same,Upper Peduncle diameter,[2],1.37 ± 0.05 mm
same,Lower Pedicel Length,[3],7.40 ± 0.24 mm
same,Lower Pedicel diameter,[3],1.49 ± 0.11 mm
same,Lower Peduncle Length,[3],26.80 ± 4.55 mm
same,Lower Peduncle diameter,[3],1.25 ± 0.06 mm
same,Upper Pedicel Length,[3],8.00 mm
same,Upper Pedicel diameter,[3],1.46 mm
same,Upper Peduncle Length,[3],15.00 mm
same,Upper Peduncle diameter,[3],1.33 mm
same,Lower Pedicel Length,[4],8.80 ± 0.25 mm
same,Lower Pedicel diameter,[4],1.34 ± 0.03 mm
same,Lower Peduncle Length,[4],38.00 ± 3.63 mm
same,Lower Peduncle diameter,[4],1.38 ± 0.05 mm
same,Upper Pedicel Length,[4],8.33 ± 0.29 mm
same,Upper Pedicel diameter,[4],1.24 ± 0.05 mm
same,Upper Peduncle Length,[4],16.67 ± 0.69 mm
same,Upper Peduncle diameter,[4],1.16 ± 0.03 mm
same,Ratio of seed number on main stem to lateral stems,[5],2.0 ± 0.5
same,Seed number plant,[5],46.8 ± 3.3
same,Seed weight per per plant,[5],12.9 ± 0.9 g
same,Weight per seed,[5],0.277 ± 0.005 g
same,Lower Pedicel Length,[6],8.80 ± 0.36 mm
same,Lower Pedicel diameter,[6],1.47 ± 0.05 mm
same,Lower Peduncle Length,[6],47.10 ± 3.42 mm
same,Lower Peduncle diameter,[6],1.28 ± 0.06 mm
same,Upper Pedicel Length,[6],8.14 ± 0.14 mm
same,Upper Pedicel diameter,[6],1.43 ± 0.04 mm
same,Upper Peduncle Length,[6],16.86 ± 1.01 mm
same,Upper Peduncle diameter,[6],1.20 ± 0.07 mm
same,Lower Pedicel Length,[7],9.4 ± 0.27 mm
same,Lower Pedicel diameter,[7],1.51 ± 0.04 mm
same,Lower Peduncle Length,[7],58.20 ± 5.41 mm
same,Lower Peduncle diameter,[7],1.51 ± 0.04 mm
same,Upper Pedicel Length,[7],9.20 ± 0.33 mm
same,Upper Pedicel diameter,[7],1.47 ± 0.04 mm
same,Upper Peduncle Length,[7],19.00 ± 0.60 mm
same,Upper Peduncle diameter,[7],1.26 ± 0.02 mm
same,Lower Pedicel Length,[8],7.90 ± 0.28 mm
same,Lower Pedicel diameter,[8],1.43 ± 0.05 mm
same,Lower Peduncle Length,[8],34.50 ± 2.73 mm
same,Lower Peduncle diameter,[8],1.33 ± 0.05 mm
same,Upper Pedicel Length,[8],8.60 ± 0.24 mm
same,Upper Pedicel diameter,[8],1.34 ± 0.04 mm
same,Upper Peduncle Length,[8],15.80 ± 1.11 mm
same,Upper Peduncle diameter,[8],1.17 ± 0.03 mm
same,Lower Pedicel Length,[9],9.00 ± 0.30 mm
same,Lower Pedicel diameter,[9],1.39 ± 0.04 mm
same,Lower Peduncle Length,[9],45.90 ± 4.3 mm
same,Lower Peduncle diameter,[9],1.49 ± 0.04 mm
same,Upper Pedicel Length,[9],9.00 ± 0.29 mm
same,Upper Pedicel diameter,[9],1.31 ± 0.04 mm
same,Upper Peduncle Length,[9],18.00 ± 0.96 mm
same,Upper Peduncle diameter,[9],1.17 ± 0.02 mm
same,Ratio of seed number on main stem to lateral stems,[10],3.0 ± 0.4
same,Seed number per plant,[10],63.5 ± 6.8
same,Seed weight per plant,[10],15.5 ± 1.6 g
same,Weight per seed,[10],0.245 ± 0.004 g
same,increase in seed yield (seed weight per plant) vs control,[10],78%
same,Lower Pedicel Length,[11],9.40 ± 0.34 mm
same,Lower Pedicel diameter,[11],1.73 ± 0.04 mm
same,Lower Peduncle Length,[11],68.40 ± 5.39 mm
same,Lower Peduncle diameter,[11],1.72 ± 0.05 mm
same,Upper Pedicel Length,[11],9.00 ± 0.37 mm
same,Upper Pedicel diameter,[11],1.67 ± 0.06 mm
same,Upper Peduncle Length,[11],18.11 ± 0.59 mm
same,Upper Peduncle diameter,[11],1.45 ± 0.08 mm
same,Lower Pedicel Length,[12],9.30 ± 0.26 mm
same,Lower Pedicel diameter,[12],1.65 ± 0.04 mm
same,Lower Peduncle Length,[12],67.10 ± 5.30 mm
same,Lower Peduncle diameter,[12],1.59 ± 0.04 mm
same,Upper Pedicel Length,[12],9.20 ± 0.20 mm
same,Upper Pedicel diameter,[12],1.52 ± 0.03 mm
same,Upper Peduncle Length,[12],19.80 ± 1.08 mm
same,Upper Peduncle diameter,[12],1.27 ± 0.05 mm
same,Lower Pedicel Length,[13],7.50 ± 0.56 mm
same,Lower Pedicel diameter,[13],1.49 ± 0.05 mm
same,Lower Peduncle Length,[13],38.67 ± 3.18 mm
same,Lower Peduncle diameter,[13],1.58 ± 0.06 mm
same,Upper Pedicel Length,[13],8.00 ± 0.58 mm
same,Upper Pedicel diameter,[13],1.39 ± 0.15 mm
same,Upper Peduncle Length,[13],17.00 ± 1.00 mm
same,Upper Peduncle diameter,[13],1.30 ± 0.06 mm
same,Lower Pedicel Length,[14],9.57 ± 0.37 mm
same,Lower Pedicel diameter,[14],1.37 ± 0.03 mm
same,Lower Peduncle Length,[14],44.00 ± 3.22 mm
same,Lower Peduncle diameter,[14],1.37 ± 0.03 mm
same,Upper Pedicel Length,[14],8.86 ± 0.55 mm
same,Upper Pedicel diameter,[14],1.25 ± 0.04 mm
same,Upper Peduncle Length,[14],18.57 ± 0.61 mm
same,Upper Peduncle diameter,[14],1.12 ± 0.03 mm
same,Ratio of seed number on main stem to lateral stems,[15],1.2 ± 0.2
same,Seed number plant,[15],55.9 ± 5.9
same,Seed weight per per plant,[15],15.3 ± 1.7 g
same,Weight per seed,[15],0.273 ± 0.010 g
same,increase in seed number per plant over control,"1×10^−7 M, mild heat stress",30%
same,increase in seed weight per plant over control,"1×10^−7 M, mild heat stress",29%
same,Lower Pedicel Length,[16],8.78 ± 0.28 mm
same,Lower Pedicel diameter,[16],1.69 ± 0.06 mm
same,Lower Peduncle Length,[16],62.00 ± 2.88 mm
same,Lower Peduncle diameter,[16],1.69 ± 0.05 mm
same,Upper Pedicel Length,[16],8.50 ± 0.22 mm
same,Upper Pedicel diameter,[16],1.55 ± 0.07 mm
same,Upper Peduncle Length,[16],17.00 ± 0.73 mm
same,Upper Peduncle diameter,[16],1.41 ± 0.05 mm
same,Lower Pedicel Length,[17],9.3 ± 0.30 mm
same,Lower Pedicel diameter,[17],1.57 ± 0.05 mm
same,Lower Peduncle Length,[17],55.80 ± 4.61 mm
same,Lower Peduncle diameter,[17],1.57 ± 0.03 mm
same,Upper Pedicel Length,[17],9.20 ± 0.29 mm
same,Upper Pedicel diameter,[17],1.48 ± 0.04 mm
same,Upper Peduncle Length,[17],19.00 ± 0.76 mm
same,Upper Peduncle diameter,[17],1.25 ± 0.02 mm
same,Lower Pedicel Length,[18],8.13 ± 0.40 mm
same,Lower Pedicel diameter,[18],1.70 ± 0.06 mm
same,Lower Peduncle Length,[18],46.13 ± 2.75 mm
same,Lower Peduncle diameter,[18],1.61 ± 0.06 mm
same,Upper Pedicel Length,[18],8.20 ± 0.37 mm
same,Upper Pedicel diameter,[18],1.46 ± 0.11 mm
same,Upper Peduncle Length,[18],18.60 ± 0.98 mm
same,Upper Peduncle diameter,[18],1.31 ± 0.07 mm
same,Lower Pedicel Length,[19],9.44 ± 0.18 mm
same,Lower Pedicel diameter,[19],1.46 ± 0.04 mm
same,Lower Peduncle Length,[19],48.44 ± 2.5 mm
same,Lower Peduncle diameter,[19],1.42 ± 0.05 mm
same,Upper Pedicel Length,[19],9.00 ± 0.33 mm
same,Upper Pedicel diameter,[19],1.26 ± 0.05 mm
same,Upper Peduncle Length,[19],18.38 ± 1.10 mm
same,Upper Peduncle diameter,[19],1.07 ± 0.03 mm
same,number of inflorescences with two pods at the fourth flowering node,"1×10^−7 to 1×10^−4 M, no heat stress, control 10%",70-90 % of the plants
same,number of inflorescences with 2 pods at the third flowering node,"1×10^−7 to 1×10^−4 M, no heat stress, control 20%",80-100 % of the plants
same,increase in seed yield vs control,'Early' treatment 1×10^−6 M,109%
same,Ratio of seed number on main stem to lateral stems,[20],1.5 ± 0.2
same,Seed number per plant,[20],64.8 ± 5.2
same,Seed weight per plant,[20],16.2 ± 1.3 g
same,Weight per seed,[20],0.252 ± 0.006 g
same,Ratio of seed number on main stem to lateral stems,[21],1.6 ± 0.1
same,Seed number per plant,[21],73.8 ± 5.9
same,Seed weight per plant,[21],18.2 ± 1.4 g
same,Weight per seed,[21],0.248 ± 0.006 g
